Source: patent US5972939A, “Cyclopentene derivatives useful as antagonists of the motilin receptor” (Ortho-McNeil Pharmaceutical, Inc., priority 1998, dated 1999)
Like-named read-outs stand apart in the source and are kept apart here.

Molecular target: T1, motilin receptors located on the colon of mature rabbits (Oryctolagus cuniculus, UniProt G1T803)
T1 construct: The colon from mature New Zealand rabbits was removed, dissected free from the mucosa and serosa layers, and diced into small pieces; from tissue; host or cells: colon smooth muscle of mature New Zealand rabbits, crude membrane homogenate
Experiment: competition with radiolabeled (125I) porcine motilin for the motilin receptors of rabbit colon
Assay type: binding
Details: for IC50: rabbit colon, 125I motilin
Experimental: The compounds of the invention were tested for their ability to compete with radiolabeled motilin (porcine) for the motilin receptors located on the colon of mature rabbits. The colon from mature New Zealand rabbits was removed, dissected free from the mucosa and serosa layers, and diced into small pieces. […] The homogenate was centrifuged at 1000×g for 15 min. and the supernatant discarded. The pellet was washed twice before being suspended in homogenizing buffer. This crude homogenate is then passed first through a 19 gauge needle then a 23 gauge needle to further suspend the material and stored as -80° C. […] After 30 min, at 30° C., the material was cooled on ice and centrifuged at 13,000×g for 1 minute. The pellet was washed with 1 mL 0.9% saline and centrifuged at 13,000×g for 15 seconds. The pellet was washed again with cold saline and the supernatant was removed. The pellet was counted in the gamma counter to determine the percentage of […] motilin and thereby the percent inhibition of the test compound. IC50s were determined for some compounds by standard techniques.

T1 sequence (G1T803 1-400): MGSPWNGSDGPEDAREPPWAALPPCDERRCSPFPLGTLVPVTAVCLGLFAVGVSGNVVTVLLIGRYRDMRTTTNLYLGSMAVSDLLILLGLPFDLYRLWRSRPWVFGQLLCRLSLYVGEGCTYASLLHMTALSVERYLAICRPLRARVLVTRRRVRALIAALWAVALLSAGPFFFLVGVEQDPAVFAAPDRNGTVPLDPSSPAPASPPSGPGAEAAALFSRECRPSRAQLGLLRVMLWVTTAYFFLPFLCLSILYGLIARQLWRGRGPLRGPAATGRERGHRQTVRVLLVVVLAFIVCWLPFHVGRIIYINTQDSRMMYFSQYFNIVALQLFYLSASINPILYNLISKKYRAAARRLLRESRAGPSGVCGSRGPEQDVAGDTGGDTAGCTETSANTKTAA

SMILES: O=C(NC1(Cc2ccccc2)C=C(CNc2cccc(OCCN3CCOCC3)c2)CC1)C(Cl)(Cl)Cl (stereo not shown) [Compound 6]
- inhibition at 10 µM: 37%

SMILES: O=C(NC1(Cc2ccccc2)C=C(CN(C(=S)Nc2ccccc2)c2cccc(OCCN3CCOCC3)c2)CC1)C(Cl)(Cl)Cl (stereo not shown) [Compound 11]
- inhibition at 0.1 µM: 45%

SMILES: CC(=O)NC1(Cc2ccccc2)C=C(CN(C(=O)Nc2ccccc2)c2cccc(OCCN3CCOCC3)c2)CC1 (stereo not shown) [Compound 15, 3-Benzyl-3-acetylamino-1-(N-phenylaminocarbonyl)-N-[(3-(2-morpholinoethoxy)phenyl)amino]methylcyclopentene]
- inhibition at 1 µM: 40%

SMILES: O=C(Nc1ccccc1)N(CC1=CC(Cc2ccccc2)(NC(=O)C(Cl)(Cl)Cl)CC1)c1cccc(CCCN2CCOCC2)c1 (stereo not shown) [Compound 19]
- inhibition at 1 µM: 59%

SMILES: O=C(Nc1ccccc1)N(CC1=CC(Cc2ccccc2)(NC(=O)C(Cl)(Cl)Cl)CC1)c1cccc(SCCN2CCOCC2)c1 (stereo not shown) [Compound 22, 3-Benzyl-3-trichloroacetylamino-1-(N-phenylaminocarbonyl)-N-[(3-(2-morpholinoethyl)phenyl)thio]methylcyclopentene]
- inhibition at 10 µM: 83%

SMILES: O=C(c1ccccc1)N(CC1=CC(Cc2ccccc2)(NC(=O)C(Cl)(Cl)Cl)CC1)Cc1cccc(OCCN2CCOCC2)c1 (stereo not shown) [Compound 32]
- inhibition at 10 µM: 70%

SMILES: COc1ccc(N(CC2=CC(Cc3ccccc3)(NC(=O)C(Cl)(Cl)Cl)CC2)C(=O)c2ccccc2)cc1OCCN1CCOCC1 (stereo not shown) [Compound 34]
- inhibition at 10 µM: 74%

SMILES: O=C(c1ccc(Br)cc1)N(CC1=CC(Cc2ccccc2)(NC(=O)C(Cl)(Cl)Cl)CC1)c1cc(OCCN2CCOCC2)ccc1Cl (stereo not shown) [Compound 38]
- inhibition at 1 µM: 59%

SMILES: COc1ccc(N(CCN2CCOCC2)CC2=CC(Cc3ccccc3)(NC(=O)C(Cl)(Cl)Cl)CC2)cc1OCCN1CCOCC1 (stereo not shown) [Compound 40]
- inhibition at 10 µM: 27%

SMILES: O=C(c1ccccc1)N(CCc1cccc(OCCN2CCOCC2)c1)CC1=CC(Cc2ccccc2)(NC(=O)C(Cl)(Cl)Cl)CC1 (stereo not shown) [Compound 41]
- inhibition at 10 µM: 82%

SMILES: CCOC(=O)COc1cccc(N(CC2=CC(Cc3ccccc3)(NC(=O)C(Cl)(Cl)Cl)CC2)C(=O)c2ccccc2)c1 (stereo not shown) [Compound 46]
- inhibition at 10 µM: 51%

SMILES: O=C(NC1(Cc2ccccc2)C=C(CNc2ccc(O)cc2)CC1)C(Cl)(Cl)Cl (stereo not shown) [Compound 69]
- inhibition at 10 µM: 11%

SMILES: CCN(CC)CCN(CC1=CC(Cc2ccccc2)(NC(=O)C(Cl)(Cl)Cl)CC1)c1ccccc1OCCN1CCOCC1 (stereo not shown) [Compound 70]
- inhibition at 10 µM: 80%

SMILES: CCN(CC)CCN(CC1=CC(Cc2ccccc2)(NC(=O)C(Cl)(Cl)Cl)CC1)c1ccc(OCCN(C)C)cc1 (stereo not shown) [Compound 71]
- inhibition at 10 µM: 85%

SMILES: CCN(CC)CCN(CC1=CC(Cc2ccccc2)(NC(=O)C(Cl)(Cl)Cl)CC1)c1ccccc1OCCN1CCOCC1 (stereo not shown) [Compound 72]
- IC50 (read-out: IC50 (unit inferred)): 900 nM

SMILES: CCN(CC)CCN(CC1=CC(Cc2ccccc2)(NC(=O)C(Cl)(Cl)Cl)CC1)c1ccccc1O (stereo not shown) [Compound 73]
- inhibition at 10 µM: 84%

SMILES: CCN(CC)CCN(CC1=CC(Cc2ccccc2)(NC(=O)C(Cl)(Cl)Cl)CC1)c1ccc(O)cc1 (stereo not shown) [Compound 74]
- inhibition at 10 µM: 81%

SMILES: Nc1cccc(NCC2=CC(Cc3ccccc3)(NC(=O)C(Cl)(Cl)Cl)CC2)c1 (stereo not shown) [Compound 75]
- inhibition at 10 µM: 41%

SMILES: CCN(CC)CCN(CCc1ccc(O)cc1)CC1=CC(Cc2ccccc2)(NC(=O)C(Cl)(Cl)Cl)CC1 (stereo not shown) [Compound 76]
- inhibition at 10 µM: 84%

SMILES: CCN(CC)CCOc1cccc(CN(CC2=CC(Cc3ccccc3)(NC(=O)C(Cl)(Cl)Cl)CC2)C2CCN(Cc3ccccc3)CC2)c1 (stereo not shown) [Compound 77]
- IC50 (read-out: IC50 (unit inferred)): 800 nM

SMILES: CC(=O)N(CC1=CC(Cc2ccccc2)(NC(=O)C(Cl)(Cl)Cl)CC1)c1cccc(OCCN2CCOCC2)c1 (stereo not shown) [Compound 78]
- IC50 (read-out: IC50 (unit inferred)): 1030 nM

SMILES: CCN(CC)CCSc1cccc(N(CC2=CC(Cc3ccccc3)(NC(=O)C(Cl)(Cl)Cl)CC2)C(=O)c2ccccc2)c1 (stereo not shown) [Compound 79]
- inhibition at 10 µM: 98%

SMILES: O=C(c1ccc(F)cc1)N(CC1=CC(Cc2ccccc2)(NC(=O)C(Cl)(Cl)Cl)CC1)c1cccc(SCCN2CCOCC2)c1 (stereo not shown) [Compound 80]
- inhibition at 10 µM: 79%

SMILES: O=C(NC1(Cc2ccccc2)C=C(CNCCc2cccc(SCCN3CCOCC3)c2)CC1)C(Cl)(Cl)Cl (stereo not shown) [Compound 81]
- inhibition at 10 µM: 81%

SMILES: O=C(c1ccccc1)N(CC1=CC(Cc2ccccc2)(NC(=O)C(Cl)(Cl)Cl)CC1)c1cccc(SCCN2CCOCC2)c1 (stereo not shown) [Compound 82]
- inhibition at 10 µM: 80%

SMILES: CCN(CC)CCOc1cccc(CN(CC2=CC(Cc3ccccc3)(NC(=O)C(Cl)(Cl)Cl)CC2)C(=O)c2ccccc2)c1 (stereo not shown) [Compound 83]
- inhibition at 10 µM: 100%

SMILES: COc1ccc(C(=O)N(CC2=CC(Cc3ccccc3)(NC(=O)C(Cl)(Cl)Cl)CC2)c2cccc(SCCN3CCOCC3)c2)cc1 (stereo not shown) [Compound 84]
- inhibition at 10 µM: 59%

SMILES: O=C(Oc1cccc(CCN(CCN2CCOCC2)CC2=CC(Cc3ccccc3)(NC(=O)C(Cl)(Cl)Cl)CC2)c1)c1ccccc1 (stereo not shown) [Compound 85]
- inhibition at 2 µM: 9%

SMILES: CN(C)CCSc1ccc(N(CC2=CC(Cc3ccccc3)(NC(=O)C(Cl)(Cl)Cl)CC2)C(=O)c2ccccc2)cc1 (stereo not shown) [Compound 86]
- inhibition at 2 µM: 49%

SMILES: COc1ccc(NCC2=CC(Cc3ccccc3)(NC(=O)C(Cl)(Cl)Cl)CC2)cc1O (stereo not shown) [Compound 87]
- inhibition at 10 µM: 32%

SMILES: O=C(NC1(Cc2ccccc2)C=C(CN(Cc2ccccc2)Cc2cccc(OCCN3CCOCC3)c2)CC1)C(Cl)(Cl)Cl (stereo not shown) [Compound 88]
- inhibition at 10 µM: 94%

SMILES: COc1ccc(NC(=O)N(CC2=CC(Cc3ccccc3)(NC(=O)C(Cl)(Cl)Cl)CC2)c2cccc(OCCN3CCOCC3)c2)cc1 (stereo not shown) [Compound 89]
- inhibition at 5 µM (@ 5.0 μM): 26%

SMILES: COc1cccc(C(=O)N(CC2=CC(Cc3ccccc3)(NC(=O)C(Cl)(Cl)Cl)CC2)c2cccc(OCCN3CCOCC3)c2)c1 (stereo not shown) [Compound 90]
- inhibition at 0.5 µM (@ 0.5 μM): 65%

SMILES: CCN(CC)CCN(CCc1cccc(OCCN2CCOCC2)c1)CC1=CC(Cc2ccccc2)(NC(=O)C(Cl)(Cl)Cl)CC1 (stereo not shown) [Compound 92]
- inhibition at 10 µM: 95%

SMILES: COc1ccc(N(CC2=CC(Cc3ccccc3)(NC(=O)C(Cl)(Cl)Cl)CC2)Cc2ccccc2)cc1OCCN1CCOCC1 (stereo not shown) [Compound 93]
- inhibition at 10 µM: 62%

SMILES: COc1ccc(NCC2=CC(Cc3ccccc3)(NC(=O)C(Cl)(Cl)Cl)CC2)cc1OCCN1CCOCC1 (stereo not shown) [Compound 94]
- inhibition at 10 µM: 48%

SMILES: COc1ccc(CCN(CCN2CCOCC2)CC2=CC(Cc3ccccc3)(NC(=O)C(Cl)(Cl)Cl)CC2)cc1OC(=O)c1ccccc1 (stereo not shown) [Compound 95]
- inhibition at 2 µM: 22%

SMILES: CN(C)c1ccc(C(=O)N(CCc2cccc(OCCN3CCOCC3)c2)CC2=CC(Cc3ccccc3)(NC(=O)C(Cl)(Cl)Cl)CC2)cc1 (stereo not shown) [Compound 96]
- inhibition at 1 µM: 62%

SMILES: O=C(c1ccc(Cl)c(Cl)c1)N(CC1=CC(Cc2ccccc2)(NC(=O)C(Cl)(Cl)Cl)CC1)c1cccc(OCCN2CCOCC2)c1 (stereo not shown) [Compound 97]
- IC50 (read-out: IC50): 260 nM

SMILES: O=C(c1ccc(F)cc1)N(CC1=CC(Cc2ccccc2)(NC(=O)C(Cl)(Cl)Cl)CC1)c1cccc(CCCN2CCOCC2)c1 (stereo not shown) [Compound 98]
- inhibition at 1 µM: 17%

SMILES: O=C(c1cc(C(F)(F)F)cc(C(F)(F)F)c1)N(CC1=CC(Cc2ccccc2)(NC(=O)C(Cl)(Cl)Cl)CC1)c1cccc(OCCN2CCOCC2)c1 (stereo not shown) [Compound 99]
- inhibition at 1 µM: 28%

SMILES: O=C(c1c(F)c(F)c(F)c(F)c1F)N(CC1=CC(Cc2ccccc2)(NC(=O)C(Cl)(Cl)Cl)CC1)c1cccc(OCCN2CCOCC2)c1 (stereo not shown) [Compound 100]
- IC50 (read-out: IC50): 1000 nM

SMILES: O=C(c1cccc(Br)c1)N(CC1=CC(Cc2ccccc2)(NC(=O)C(Cl)(Cl)Cl)CC1)c1cccc(OCCN2CCOCC2)c1 (stereo not shown) [Compound 101]
- inhibition at 0.1 µM: 54%

SMILES: O=C(c1ccc(Cl)cc1)N(CC1=CC(Cc2ccccc2)(NC(=O)C(Cl)(Cl)Cl)CC1)c1cccc(OCCN2CCOCC2)c1 (stereo not shown) [Compound 102]
- inhibition at 0.1 µM: 61%

SMILES: O=C(c1cccc(C(F)(F)F)c1)N(CC1=CC(Cc2ccccc2)(NC(=O)C(Cl)(Cl)Cl)CC1)c1cccc(OCCCN2CCOCC2)c1 (stereo not shown) [Compound 103]
- inhibition at 0.1 µM: 52%

SMILES: O=C(c1ccc(C(F)(F)F)cc1)N(CC1=CC(Cc2ccccc2)(NC(=O)C(Cl)(Cl)Cl)CC1)c1cccc(OCCN2CCOCC2)c1 (stereo not shown) [Compound 104]
- inhibition at 0.1 µM: 29%

SMILES: O=C(c1ccc(I)cc1)N(CC1=CC(Cc2ccccc2)(NC(=O)C(Cl)(Cl)Cl)CC1)c1cccc(OCCN2CCOCC2)c1 (stereo not shown) [Compound 105]
- inhibition at 0.1 µM: 59%

SMILES: O=C(c1cc(F)cc(F)c1)N(CC1=CC(Cc2ccccc2)(NC(=O)C(Cl)(Cl)Cl)CC1)c1cccc(OCCN2CCOCC2)c1 (stereo not shown) [Compound 106]
- inhibition at 0.1 µM: 78%

SMILES: O=C(c1cccs1)N(CC1=CC(Cc2ccccc2)(NC(=O)C(Cl)(Cl)Cl)CC1)c1cccc(OCCN2CCOCC2)c1 (stereo not shown) [Compound 108]
- inhibition at 1 µM: 84%

SMILES: N#Cc1ccc(C(=O)N(CC2=CC(Cc3ccccc3)(NC(=O)C(Cl)(Cl)Cl)CC2)c2cccc(OCCN3CCOCC3)c2)cc1 (stereo not shown) [Compound 109]
- IC50 (read-out: IC50): 98 nM

SMILES: CC(C)(C)c1ccc(C(=O)N(CC2=CC(Cc3ccccc3)(NC(=O)C(Cl)(Cl)Cl)CC2)c2cccc(OCCN3CCOCC3)c2)cc1 (stereo not shown) [Compound 110]
- inhibition at 1 µM: 19%

SMILES: O=C(c1ccncc1)N(CC1=CC(Cc2ccccc2)(NC(=O)C(Cl)(Cl)Cl)CC1)c1cccc(OCCN2CCOCC2)c1 (stereo not shown) [Compound 111]
- inhibition at 1 µM: 51%

SMILES: O=C(Nc1cccc(Br)c1)N(CC1=CC(Cc2ccccc2)(NC(=O)C(Cl)(Cl)Cl)CC1)c1cccc(OCCN2CCOCC2)c1 (stereo not shown) [Compound 112]
- inhibition at 1 µM: 51%

SMILES: O=C(c1cccc(F)c1)N(CC1=CC(Cc2ccccc2)(NC(=O)C(Cl)(Cl)Cl)CC1)c1cc(OCCN2CCOCC2)ccc1Cl (stereo not shown) [Compound 113]
- inhibition at 1 µM: 59%

SMILES: O=C(c1ccc(F)c(F)c1)N(CC1=CC(Cc2ccccc2)(NC(=O)C(Cl)(Cl)Cl)CC1)c1cc(OCCN2CCOCC2)ccc1Cl (stereo not shown) [Compound 114]
- inhibition at 100 µM (@ 100 μM): 52%
